In the assay the test system is Plasmodium falciparum. Kind of assay: GSK_TCMDC: Inhibition of Plasmodium falciparum 3D7 in whole erythrocytes, using parasite LDH activity as an index of growth. The format is functional, organism-based. Particulars: Plasmodium falciparum, 3D7.

The text below walks through data of ChEMBL document CHEMBL1157539, “Thousands of chemical starting points for antimalarial lead identification” (Nature, 2010).

`CO/C(=C\C=C\c1cc2cc(Cl)c(Cl)cc2[nH]1)C(=O)NCCCNC12CC3CC(CC(C3)C1)C2` yielded an XC50 of 730 nM.

In the case of `CC(C)CNCc1cccc(-c2ccc(CN(C(=O)NC3CCCCC3)C3CCN(Cc4ccccc4)CC3)cc2)c1`, the XC50 amounted to 763 nM.

In turn, `COc1ccc2ncc(F)c(CCN3CC(O)C(CNCc4ccc5c(c4)OCCO5)C3)c2n1` (stereo not drawn) displayed an XC50 of 927 nM.

In turn, `CC(C)c1ccc(-c2noc(SCC(=O)N3CCCCC3C)n2)cc1` (stereo not drawn) had an XC50 of 1670 nM.

For the compound `Cc1c(C(=O)C2CC2CN2CCC(N3CCCC3)CC2)sc2ccccc12` (stereo not drawn), the XC50 turned out to be 1400 nM.

Turning to `Cc1noc(-c2ccc(N3CCC(C(=O)N4CCN(C(C)C)CC4)CC3)cc2)n1`, the XC50 worked out at 1070 nM.

`CCOc1ccc2c(c1)N(C(=O)C=Cc1ccccc1)C(C)(C)c1ssc(=S)c1-2` yielded an XC50 of 1150 nM.

`CC(=O)Nc1ncc(C(=O)Nc2ccc(-c3cccc(-c4nc5cc(F)ccc5[nH]4)c3)cc2)s1`: the XC50 was 354 nM.

`CCN(CCCN1CCCCC1)c1cc(C)nc(Nc2ccc(C)cc2Cl)n1` had an XC50 of 339 nM.

`O=C1C(c2ccccc2)=C(Nc2cccc([N+](=O)[O-])c2)c2ccccc21` registered an XC50 of 892 nM.

`COc1cc2c(cc1N1CC(C)NC(C)C1)N(C(=O)c1ccc(-c3ccc(-c4ncc[nH]4)cc3C)cc1)CC2` (stereo not drawn) had an XC50 of 717 nM.

The compound `CC(C)(CN1CCCC1)CN(Cc1ccc(-c2ccc(C(F)(F)F)cc2)cc1)C(=O)Cn1c(CCc2cccc(F)c2F)nc(=O)c2ccccc21` returned an XC50 of 790 nM.

Compound `NC1CCCN(Cc2ccc(-c3ccc(-c4nc5ccccc5[nH]4)s3)cc2)C1` (stereo not drawn) gave an XC50 of 672 nM.

In the case of `CSC1=NC(=Nc2c(C)cccc2C)C2(CCCCC2)N1c1ccccc1Cl`, the XC50 was found to be 817 nM.

For `CCOc1ccc(-c2n[nH]c(C(F)(F)F)c2-c2ccccc2OC)c(O)c1`, the XC50 is 1140 nM.

`C=CCOc1ccc2ccccc2c1CNCCCCCCNCc1c(OCC=C)ccc2ccccc12`: the XC50 was determined as 859 nM.

`CCN(CC)CCN(Cc1ccc(-c2ccc(C(F)(F)F)cc2)cc1)C(=O)Cn1c(CCc2ccc(F)c(F)c2)nc(=O)c2ccccc21` displayed an XC50 of 1580 nM.

With `O=C(NCc1ccc(F)cc1)c1cnc(N2CCN(c3ccncc3)CC2)c(Cl)c1`, the XC50 came to 1390 nM.

On to `Cc1ccccc1Nc1nc(NCCc2ccccc2)nc2ccccc12`, for which the XC50 was 1260 nM.

With `CN(C)CCOc1ccc(/C(=C(/CCCn2ccnc2)c2ccccc2)c2ccc(O)cc2)cc1`, the XC50 amounted to 772 nM.

Compound `CCOc1c(CCNCCCCNCCc2ccc3ccccc3c2OCC)ccc2ccccc12` showed an XC50 of 596 nM.

In turn, `COc1cccc2cc(C(=O)N[C@@H](CC(C)C)C(=O)N[C@H](/C=N/NC(=O)Cc3cccnc3)CCc3ccccc3)oc12` had an XC50 of 951 nM.

`Cc1cc(N2CC=CCC2)nc(NC(=N)Nc2ccc(Cl)cc2)n1` showed an XC50 of 782 nM.

On to `Cc1ccc(-c2nn3c(O)c4c(nc3c2C)CCCC4)cc1`, for which the XC50 worked out at 217 nM.

Regarding `O=C(Nc1ccc(Cl)c(C(F)(F)F)c1)NC1CCN(CCCCCNC(=O)C2CC2c2ccc(Cl)c(Cl)c2)CC1` (stereo not drawn), the XC50 was 683 nM.

Turning to `O=C(NC1CCCCC1)c1ccc(O)c(-c2cccc(C(F)(F)F)c2)c1`, the XC50 came to 712 nM.

Compound `COc1cc2c(c(Cl)c1OC)CCN(Cc1ccccc1)CC2c1ccc(C(N)=O)cc1` (stereo not drawn) returned an XC50 of 848 nM.

The compound `O=C(Cn1nc(Br)nc1[N+](=O)[O-])NCC1CCCCC1` yielded an XC50 of 1100 nM.

`OC(CNCCCc1ccccc1)c1cc(OCc2ccccc2)cc(OCc2ccccc2)c1` (stereo not drawn) showed an XC50 of 851 nM.

`CS(=O)(=O)Cc1ccc(Nc2nccc(NC3CCN(c4nccc(C(F)(F)F)n4)CC3)n2)cc1` yielded an XC50 of 896 nM.

`COc1ccc(C(=O)c2ccc3[nH]cc(C4=CCN(C)CC4)c3c2)cc1`: the XC50 was 1050 nM.

Take `C=CCn1c(SCc2c(C)noc2C)nc2scc(-c3cccs3)c2c1=O`: the XC50 stood at 1100 nM.

On to `CN(CCC(O)c1ccc(Cl)c(Cl)c1)CC1CC1C(=O)c1ccccc1` (stereo not drawn), for which the XC50 was 794 nM.

`CN1CCN(CCCN(Cc2ccc(-c3ccc(CNCc4ccc5c(c4)OCO5)cc3)cc2)C(=O)CCC2CCCC2)CC1` displayed an XC50 of 952 nM.

Turning to `Cc1cc2c(cc1C(F)(F)F)N(C(=O)Nc1cccc(C(=O)NC3CCN(Cc4ccccc4)CC3)c1)CC2`, the XC50 turned out to be 912 nM.

On to `CCC1(C)CC(CCNCc2ccccc2O)(c2ccc(F)cc2)CCO1` (stereo not drawn), for which the XC50 is 880 nM.

As to `Cc1cccc2nc(-c3ccc(-c4ccc(CN5CCN(c6cnccn6)CC5)cc4)s3)[nH]c12`, the XC50 was found to be 750 nM.

Regarding `O=C(/C=C/c1cc(C(F)(F)F)ccc1F)N1CCC(CN2CCC(c3c[nH]c4ccccc34)CC2)CC1`, the XC50 amounted to 994 nM.

Take `CCCOc1ccccc1C(=O)Nc1nonc1-c1ccc(OCC)c(OCC)c1`: the XC50 was 711 nM.

On to `CCCCCCNC(=O)C(N)CCCC(N)C(=O)NCCCCCC` (stereo not drawn), for which the XC50 turned out to be 162 nM.

`Cc1c(Oc2ccc(-n3ccnc3)cc2)ncnc1N1CCC2(CC1)CNCc1ccccc12` registered an XC50 of 887 nM.

Take `O=C(Nc1cccc(CN2CCCN(Cc3ccc(O)cc3)CC2)c1)c1cc2ccccc2o1`: the XC50 turned out to be 1200 nM.

In the case of `O=C(C=Cc1ccccc1)Nc1ccc(C#CC=Cc2ccc(NC(=O)C=Cc3ccccc3)cc2)cc1`, the XC50 came out at 847 nM.

In turn, `COc1cc(Nc2nccn3c(-c4ccsc4)cnc23)cc(OC)c1OC` gave an XC50 of 890 nM.

As for `O=C(Nc1ccc2c(c1)CNCC2)c1ccc(-c2ccc(Cl)cc2)cc1`, the XC50 is 662 nM.

Regarding `N=C(N)NN=CC(=O)Nc1ccc(C(F)(F)F)cc1`, the XC50 is 932 nM.

As for `CC(C)(C)C(=O)N1CCN(c2ccc([N+](=O)[O-])c(NC3CC3)c2)CC1`, the XC50 was determined as 941 nM.

For `CC(C)(C)c1ccc(-c2ccccc2CNC(=O)c2cccc(O)c2)cc1`, the XC50 was 267 nM.

In turn, `CC(C)(C)c1ccc(CN2CCC(CNC(=O)c3cc(-c4ccccc4F)cs3)C2)cc1` (stereo not drawn) displayed an XC50 of 564 nM.

As to `Oc1ccc(Cl)cc1Nc1nc(C(F)(F)F)nc2ccccc12`, the XC50 is 938 nM.

In turn, `c1ccc(C2CCC(N3CCC(N4CCCC4)CC3)CC2)cc1` (stereo not drawn) returned an XC50 of 671 nM.

Turning to `CCN(CC)C(=O)C1CCCN(c2cc(C)nc(Nc3ccc(Cl)cc3)n2)C1` (stereo not drawn), the XC50 stood at 718 nM.

`Fc1ccc2[nH]c(-c3ccc(-c4ccc(CN5CCCCC5)cc4)s3)nc2c1` came in with an XC50 of 602 nM.

In the case of `Cc1onc(-c2ccccc2)c1-c1nc(NC2CCCC(C)C2)no1` (stereo not drawn), the XC50 amounted to 836 nM.

In the case of `O=C(NCC1CCN(Cc2ccc3c(c2)OCCO3)C1)c1cc(-c2cccc(C(F)(F)F)c2)cs1` (stereo not drawn), the XC50 came to 978 nM.

`CC(C)N(Cc1cnc(N)c(C#N)n1)c1ccc(Cl)c(Cl)c1` registered an XC50 of 844 nM.

On to `COc1ccc(NC(=O)[C@H](Cc2ccccc2)Nc2cc(C)nc(NCCc3ccccc3OC)n2)cc1`, for which the XC50 stood at 529 nM.

As for `O=C(Nc1ccc(C(F)(F)F)cc1)NC1CCN(c2ccnc3cc(Cl)ccc23)C1` (stereo not drawn), the XC50 was found to be 139 nM.

For `Cc1ccc(NC(C)C(=O)Nc2ccccc2)cc1S(=O)(=O)N1CCCCCC1` (stereo not drawn), the XC50 amounted to 62.4 nM.

Turning to `Cc1ccc(C(=O)Nc2ccc(Nc3ccnc4cc(-c5ccncc5)ccc34)cc2O)cc1`, the XC50 turned out to be 929 nM.

In turn, `Cc1cccc(CNc2ncc(C)c(NCCC(=O)Nc3ccccc3)n2)c1` returned an XC50 of 1150 nM.

In turn, `N[C@@H](Cc1ccc(O)cc1)C(=O)NC(c1ccccc1)c1c(O)ccc2ccccc12` (stereo partly drawn) yielded an XC50 of 694 nM.

Regarding `COCCNCc1cccc(-c2ccc3c(Nc4ccc(Oc5ccccc5)cc4)ccnc3c2)c1`, the XC50 worked out at 517 nM.
